Source: patent US8507545B2, “Cytotoxic T cell activator comprising EP4 agonist” (National University Corporation, Hamamatsu University …, priority 2007, dated 2013)

Columns and labels:
TRP-2-specific CTLs = test: Activation of cytotoxic T cells in cervical lymph nodes after tape stripping (TRP-2 tetramer flow cytometry); type: in vivo, C57BL/6(B6) mice; details: for Ratio of TRP-2-specific CTLs: Example 1(1), cervical lymph nodes one week after application, relative to total mononucleocytes as 100
Description: The corneal layers of the auricles of C57BL/6(B6) mice were destroyed by repeating a stripping procedure using an adhesive tape in 10 cycles, and an antigen peptide or EP4 agonist was applied as a test substance. The antigen peptide used was a melanoma-specific antigen peptide (Accord K.K. Peptide Business Department; hereinafter abbreviated TRP-2) in solution in 70% ethanol; 10 μg was applied to one side of each auricle. The EP4 agonist used was 11α,15α,-dihydroxy-9-oxo-16-(3-methoxymethylphenyl)-17,18,19,20-tetranol-3,7-dithiaprost-13E-enoic acid (hereinafter abbreviated Compound A-(1)) in solution in a mixed solvent of acetone:olive oil=10:1; 20 μL of 100 μM solution was applied to one side of each auricle. One week after application of the test substance, the cervical lymph nodes were removed. The frequency of TRP-2-specific CTLs was determined relative to the total number of mononucleocytes in the cervical lymph nodes as 100 by a flowcytometric analysis (FACScaliber; Becton, Dickinson and Company.) with a tetramer (Medical & Biological Laboratories Co., Ltd.). Four experimental groups were established: (1) a group undergoing tape stripping (hereinafter abbreviated TS) alone, (2) a group undergoing TS followed by application of TRP-2, (3) a group undergoing TS followed by application of Compound A-(1), and (4) a group undergoing TS followed by application of TRP-2 and Compound A-(1).
Note that the melanoma-specific antigen peptide TRP-2 was synthesized on the basis of a partial sequence described in the aforementioned Non-patent Document 1 (SEQ ID NO. 1) (Accord K.K. Peptide Business Department).
The same procedures as Example 1(1) were followed except that the EP4 agonists used were 4-[(2-{(2R)-2-[(1E,3S)-4-(4-fluorophenyl)-3-hydroxybut-1-enyl]-5-oxopyrrolidin-1-yl}ethyl)sulfanyl]butanoic acid (hereinafter abbreviated Compound L-(1)) and 4-{[2-((1R,2R,3R)-3-hydroxy-2-{(1E,3S)-3-hydroxy-4-[3-(methoxymethyl)phenyl]but-1-enyl}-5-oxocyclopentyl)ethyl]sulfanyl}butanoic acid (hereinafter abbreviated Compound M-(1)); the action of each compound to activate cytotoxic T cells was evaluated. Four experimental groups were established: (1) a group undergoing TS alone, (2) a group undergoing TS followed by application of TRP-2, (3) a group undergoing TS followed by application of TRP-2 and Compound L-(1), and (4) a group undergoing TS followed by application of TRP-2 and Compound M-(1).

B16 melanoma cells = test: Life-prolonging effect in melanoma-inoculated mice; type: in vivo, B6 mice; details: 10 animals in group
Description: 2×10^5 B16 melanoma cells were transplanted to B6 mice in the same manner as Example 3. On day 5 after transplantation, the right auricle of each B6 mouse was treated with each test substance (TRP-2 (10 μg for one side of each auricle), Compound A-(1) (20 μL of 100 μM solution for one side of each auricle) by the same method as Example 3. Ten days later, the left auricle was treated in the same manner, and the mice in each experimental group were examined for mortality. Three experimental groups were established: (1) a group undergoing TS alone, (2) a group undergoing TS followed by application of Compound A-(1), and (3) a group undergoing TS followed by application of TRP-2 and Compound A-(1) (10 animals in each group).

COCc1cccc(C[C@H](O)/C=C/[C@H]2[C@H](O)CC(=O)[C@@H]2SCCCSCC(=O)O)c1 [Compound A-(1), 11α,15α,-dihydroxy-9-oxo-16-(3-methoxymethylphenyl)-17,18,19,20-tetranol-3,7-dithiaprost-13E-enoic acid]
Ratio of TRP-2-specific CTLs (TRP-2-specific CTLs; TS followed by application of TRP-2 and Compound A-(1)): 0.63
Ratio of TRP-2-specific CTLs (TRP-2-specific CTLs; TS followed by application of the test substance alone): 0.55
ratio of TRP-2-specific CTLs in cervical lymph nodes compared with the group undergoing TS alone (TRP-2-specific CTLs; TS followed by application of Compound A-(1)): increased
number of surviving individuals (B16 melanoma cells; day 16 after B16 melanoma cells inoculation, TS followed by Compound A-(1)): 10 animals
number of surviving individuals (B16 melanoma cells; day 16 after B16 melanoma cells inoculation, TS followed by TRP-2 and Compound A-(1)): 10 animals
number of surviving individuals (B16 melanoma cells; day 21 after B16 melanoma cells inoculation, TS followed by Compound A-(1)): 10 animals
number of surviving individuals (B16 melanoma cells; day 21 after B16 melanoma cells inoculation, TS followed by TRP-2 and Compound A-(1)): 10 animals
number of surviving individuals (B16 melanoma cells; day 24 after B16 melanoma cells inoculation, TS followed by Compound A-(1)): 10 animals
number of surviving individuals (B16 melanoma cells; day 24 after B16 melanoma cells inoculation, TS followed by TRP-2 and Compound A-(1)): 10 animals
number of surviving individuals (B16 melanoma cells; day 27 after B16 melanoma cells inoculation, TS followed by Compound A-(1)): 7 animals
number of surviving individuals (B16 melanoma cells; day 27 after B16 melanoma cells inoculation, TS followed by TRP-2 and Compound A-(1)): 10 animals
number of surviving individuals (B16 melanoma cells; day 29 after B16 melanoma cells inoculation, TS followed by Compound A-(1)): 7 animals
number of surviving individuals (B16 melanoma cells; day 29 after B16 melanoma cells inoculation, TS followed by TRP-2 and Compound A-(1)): 10 animals
number of surviving individuals (B16 melanoma cells; day 31 after B16 melanoma cells inoculation, TS followed by Compound A-(1)): 7 animals
number of surviving individuals (B16 melanoma cells; day 31 after B16 melanoma cells inoculation, TS followed by TRP-2 and Compound A-(1)): 10 animals
number of surviving individuals (B16 melanoma cells; day 33 after B16 melanoma cells inoculation, TS followed by Compound A-(1)): 7 animals
number of surviving individuals (B16 melanoma cells; day 33 after B16 melanoma cells inoculation, TS followed by TRP-2 and Compound A-(1)): 10 animals
number of surviving individuals (B16 melanoma cells; day 35 after B16 melanoma cells inoculation, TS followed by Compound A-(1)): 2 animals
number of surviving individuals (B16 melanoma cells; day 35 after B16 melanoma cells inoculation, TS followed by TRP-2 and Compound A-(1)): 10 animals
number of surviving individuals (B16 melanoma cells; day 37 after B16 melanoma cells inoculation, TS followed by Compound A-(1)): 2 animals
number of surviving individuals (B16 melanoma cells; day 37 after B16 melanoma cells inoculation, TS followed by TRP-2 and Compound A-(1)): 10 animals
number of surviving individuals (B16 melanoma cells; day 38 after B16 melanoma cells inoculation, TS followed by Compound A-(1)): 2 animals
number of surviving individuals (B16 melanoma cells; day 38 after B16 melanoma cells inoculation, TS followed by TRP-2 and Compound A-(1)): 10 animals
number of surviving individuals (B16 melanoma cells; day 40 after B16 melanoma cells inoculation, TS followed by Compound A-(1)): 0 animals
number of surviving individuals (B16 melanoma cells; day 40 after B16 melanoma cells inoculation, TS followed by TRP-2 and Compound A-(1)): 8 animals
number of surviving individuals (B16 melanoma cells; day 42 after B16 melanoma cells inoculation, TS followed by Compound A-(1)): 0 animals
number of surviving individuals (B16 melanoma cells; day 42 after B16 melanoma cells inoculation, TS followed by TRP-2 and Compound A-(1)): 8 animals
number of surviving individuals (B16 melanoma cells; day 44 after B16 melanoma cells inoculation, TS followed by Compound A-(1)): 0 animals
number of surviving individuals (B16 melanoma cells; day 44 after B16 melanoma cells inoculation, TS followed by TRP-2 and Compound A-(1)): 5 animals
number of surviving individuals (B16 melanoma cells; day 46 after B16 melanoma cells inoculation, TS followed by Compound A-(1)): 0 animals
number of surviving individuals (B16 melanoma cells; day 46 after B16 melanoma cells inoculation, TS followed by TRP-2 and Compound A-(1)): 4 animals
number of surviving individuals (B16 melanoma cells; day 48 after B16 melanoma cells inoculation, TS followed by Compound A-(1)): 0 animals
number of surviving individuals (B16 melanoma cells; day 48 after B16 melanoma cells inoculation, TS followed by TRP-2 and Compound A-(1)): 2 animals
number of surviving individuals (B16 melanoma cells; day 50 after B16 melanoma cells inoculation, TS followed by Compound A-(1)): 0 animals
number of surviving individuals (B16 melanoma cells; day 50 after B16 melanoma cells inoculation, TS followed by TRP-2 and Compound A-(1)): 2 animals
number of surviving individuals (B16 melanoma cells; day 52 after B16 melanoma cells inoculation, TS followed by Compound A-(1)): 0 animals
number of surviving individuals (B16 melanoma cells; day 52 after B16 melanoma cells inoculation, TS followed by TRP-2 and Compound A-(1)): 2 animals
number of surviving individuals (B16 melanoma cells; day 55 after B16 melanoma cells inoculation, TS followed by Compound A-(1)): 0 animals
number of surviving individuals (B16 melanoma cells; day 55 after B16 melanoma cells inoculation, TS followed by TRP-2 and Compound A-(1)): 2 animals
number of surviving individuals (B16 melanoma cells; day 57 after B16 melanoma cells inoculation, TS followed by Compound A-(1)): 0 animals
number of surviving individuals (B16 melanoma cells; day 57 after B16 melanoma cells inoculation, TS followed by TRP-2 and Compound A-(1)): 1 animals
